One series has as its system asxl1-mutant clones. In words: asxl1-mutant clonal dynamics in peripheral blood of mosaic asxl1-mutant zebrafish (VAF by sequencing). In kind it is in vivo. As for the experimental part: (§1) Zebrafish were generated with mosaic mutations in asxl1 using the TWISTR method (Avagyan et a1 Science 2021, PMID 34735227). Briefly, they were injected with guide-RNAs targeting asxl1 gene with Cas9 mRNA into 1-cell embryos of zebrafish, and grown to adulthood. At 3 months retroortibital bleeding was performed on the adult zebrafish and measure the size of the mutant clones in the peripheral blood by sequencing the genomic DNA at the targeting locus of asxl1. Zebrafish with at least 1 mutant allele of 5% of greater allele size were chosen for the cohorts, randomly assigned to be treated with either DMSO or NR4A1 inhibitor (DIM-C). The dose of DIM-C was determined in a previously conducted pilot experiment. Zebrafish with mosaic mutations in asxl1 are treated with either DMSO or an NR4A1 inhibitor (DIM-C) and analyzed over a three-month period. Peripheral blood was collected every month to determine the size of the mutant clones over time. […] RO=retro-orbital bleed, RO1=first RO, pre-treatment, RO2 through RO4=monthly RO bleeds following treatment.
Clonal hematopoiesis. Zebrafish were generated with mosaic mutations in asxl1 using the TWISTR method (Avagyan et a1 Science 2021, PMID 34735227). Briefly, they were injected with guide-RNAs targeting asxl1 gene with Cas9 mRNA into 1-cell embryos of zebrafish, and grown to adulthood. At 3 months retroortibital bleeding was performed on the adult zebrafish and the size of the mutant clones in the peripheral blood was measured by sequencing the genomic DNA at the targeting locus of asxl1. Zebrafish with at least 1 mutant allele of 5% of greater allele size were chosen for the cohorts, randomly assigned to be treated with either DMSO or NR4A1 inhibitor (DIM-C). Zebrafish with mosaic mutations in asxl1 were treated with either DMSO or an NR4A1 inhibitor (DIM-C) and analyzed over a three-month period. Peripheral blood was collected every month to determine the size of the mutant clones over time.
It was previously shown by early genetic targeting nr4a1 during development prevented clonal growth of mutant cells. Next, the hypothesis that pharmacologic inhibition of nr4a1 would halt or reduce mutant clonal growth over time was tested (FIG. 1). To test this hypothesis, a cohort of asxl1 mutant zebrafish were generated and screened for the presence of asxl1 mutant clone at at least 5% VAF in peripheral blood. The positively screened mutant fish were then treated either with DMSO or minimally toxic dose of DIM-c (Tocris compound) at 9.5 uM concentration overnight, between 14-16 hours long, 5 days of the week for 6 months. Peripheral blood from both groups was collected by retroorbital bleeding every month for measurement of the mutant clones in the blood by next generation sequencing (FIG. 2). N=are the numbers of fish at the initiation of treatment. A more detailed experimental schema with exact dates in order to calculate exact ages of the fish or post treatment timepoints is shown in FIG. 10.

In the next series the test system is zebrafish. In words: Tolerability and survival of treated asxl1-mutant zebrafish. In kind it is in vivo. The conditions noted are these: over the three-month treatment period. As for the experimental part:
as §1
It was previously shown by early genetic targeting nr4a1 during development prevented clonal growth of mutant cells. […]
FIG. 11 examines the survival curve of the fish in two cohorts. […] Additionally, marrow cellular composition was analyzed at 8 months post treatment by flow cytometry.

Series [1] has as its system marrow myelomonocytes, lymphocytes and progenitor/precursors. The experiment in a line: Marrow cellular composition by flow cytometry. Type of series: in vivo, zebrafish. The conditions noted are these: 8 months post treatment. The procedure:
FIG. 11 examines the survival curve of the fish in two cohorts. An event was finding the fish dead or moribund after overnight treatment; no fish died during the day or off treatment days or as a consequence of retroorbital bleeding. No statistical difference was found with p values >0.05 by two different tests between the groups. 17 DMSO and 13 DIMC fish were left for final analysis. Additionally, marrow cellular composition was analyzed at 8 months post treatment by flow cytometry.
Background: A flow cytometer gives signals particle by particle.

We go through one compound from patent publication US20250188169A1, “METHOD FOR TREATING CLONAL HEM[…] DISORDERS” (THE CHILDREN'S MEDICAL CENTER CORPORATION, priority 2022, published 2025).

Entries after “also recorded” stand apart in the source; their conditions may differ.

`Oc1ccc(C(c2c[nH]c3ccccc23)c2c[nH]c3ccccc23)cc1` [DIM-C, 1,1-bis(3′-indolyl)-1-(p-hydroxyphenyl)methane]: in the series with asxl1-mutant clones (DIM-C treated zebrafish, three-month period, null hypothesis: no change), the “change in asxl1 frameshift indel containing clone size compared to 0 (Wilcoxon rank test)” value is “no significant change”. For the same compound, in the series with asxl1-mutant clones (DIM-C treatment, three-month period, peripheral blood), the “change of asxl1-mutant clones with non-frameshift indels over time” value is reported as “similarly unchanged over time; also recorded: did not change significantly over time”. For the same compound, in the series with asxl1-mutant clones (DIM-C vs DMSO, three-month period, monthly retro-orbital bleeds, peripheral blood), the “expansion of asxl1-mutant clones with frameshift indels (VAF over time)” value is “less pronounced and plateaus by 3 months; also recorded: less expansion of asxl1-mutant clones”. Also, the “asxl1-mutant clonal expansion, clones with frameshift and non-frameshift indels, all zebrafish” value in the series with asxl1-mutant clones (DIM-C, all zebrafish (n=12), three-month period) is recorded as “significantly abated asxl1-mutant clonal expansion”. In addition, the “change in size of the largest clone over treatment” value in the series with asxl1-mutant clones (DIMC treatment arm, compared to 0 (no change over time), one sample t and Wilcoxon test) is on record as “had not changed significantly”. Moreover, the “percent change of clone size (VAF at RO4 compared to VAF at RO1), frameshift-indel clones, compared to DMSO” value in the series with asxl1-mutant clones (three-month period, clones with VAF of 5% or greater in at least 1 time point) was “significantly less expansion”. In the series on zebrafish, the “physical abnormalities in treated zebrafish” value is recorded as “No physical abnormalities were observed”. In series [1], the “marrow cellular composition, difference between treatment groups” value is “no difference between the treatment groups”.
